Patent US5939318A, “Cholesterol disposal fusion enzymes” (Regents of the University of California, priority 1996, dated 1999)

Experiments:
[1] = target: human P450scc (SEQ ID NO: 2), natural three-component system co-expressed with adrenodoxin and adrenodoxin reductase (Homo sapiens, UniProt P05108); settings: substrate 0.5 to 5.0 μM, 24 h incubation, triply transfected COS-1 cells
Method: (§1) Cells were maintained at 37° C. in 5% CO2.
(§2) All samples were assayed in triplicate.

[2] = target: fusion enzyme F2, H3N-P450scc-AdRed-Adx-COOH (human P450scc, adrenodoxin reductase 18- form, adrenodoxin) (Homo sapiens, UniProt P05108+P22570); settings: substrate 0.5 to 5.0 μM, 24 h incubation, F2-transfected COS-1 cells
Method: as §1, §2

[3] = target: T1, cytochrome P450scc (Bos taurus, UniProt P00189); settings: Morisaki et al 1980; cited from earlier work
T1 sequence (P00189 40-520): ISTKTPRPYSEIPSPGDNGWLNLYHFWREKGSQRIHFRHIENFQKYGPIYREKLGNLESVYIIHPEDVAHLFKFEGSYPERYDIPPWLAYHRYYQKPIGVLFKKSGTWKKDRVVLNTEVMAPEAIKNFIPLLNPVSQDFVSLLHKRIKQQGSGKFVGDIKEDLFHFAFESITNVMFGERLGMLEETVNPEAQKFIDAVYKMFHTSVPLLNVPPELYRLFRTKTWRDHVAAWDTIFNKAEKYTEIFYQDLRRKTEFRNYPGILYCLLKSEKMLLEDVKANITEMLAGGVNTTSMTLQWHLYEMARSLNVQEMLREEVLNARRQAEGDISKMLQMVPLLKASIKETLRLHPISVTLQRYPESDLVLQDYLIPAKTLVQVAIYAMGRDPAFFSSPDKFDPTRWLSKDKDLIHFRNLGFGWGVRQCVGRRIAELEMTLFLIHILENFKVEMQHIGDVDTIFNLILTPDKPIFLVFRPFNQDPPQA

Chain of human P450scc (SEQ ID NO: 2), natural three-component system co-expressed with adrenodoxin and adrenodoxin reductase (P05108 40-521 I301M): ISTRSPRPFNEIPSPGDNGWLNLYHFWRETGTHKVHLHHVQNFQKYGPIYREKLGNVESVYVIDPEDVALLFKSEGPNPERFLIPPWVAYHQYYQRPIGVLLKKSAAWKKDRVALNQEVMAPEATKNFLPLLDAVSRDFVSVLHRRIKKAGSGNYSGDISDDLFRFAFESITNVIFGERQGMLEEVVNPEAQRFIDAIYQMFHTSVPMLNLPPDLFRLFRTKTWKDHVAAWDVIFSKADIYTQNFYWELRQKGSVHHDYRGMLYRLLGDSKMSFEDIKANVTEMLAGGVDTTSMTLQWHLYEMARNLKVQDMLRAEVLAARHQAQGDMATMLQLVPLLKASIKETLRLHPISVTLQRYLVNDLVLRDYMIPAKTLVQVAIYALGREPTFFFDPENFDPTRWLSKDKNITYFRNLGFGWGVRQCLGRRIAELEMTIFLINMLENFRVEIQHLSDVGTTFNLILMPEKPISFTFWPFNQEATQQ
Chain of fusion enzyme F2, H3N-P450scc-AdRed-Adx-COOH (human P450scc, adrenodoxin reductase 18- form, adrenodoxin) (P05108+P22570 fused): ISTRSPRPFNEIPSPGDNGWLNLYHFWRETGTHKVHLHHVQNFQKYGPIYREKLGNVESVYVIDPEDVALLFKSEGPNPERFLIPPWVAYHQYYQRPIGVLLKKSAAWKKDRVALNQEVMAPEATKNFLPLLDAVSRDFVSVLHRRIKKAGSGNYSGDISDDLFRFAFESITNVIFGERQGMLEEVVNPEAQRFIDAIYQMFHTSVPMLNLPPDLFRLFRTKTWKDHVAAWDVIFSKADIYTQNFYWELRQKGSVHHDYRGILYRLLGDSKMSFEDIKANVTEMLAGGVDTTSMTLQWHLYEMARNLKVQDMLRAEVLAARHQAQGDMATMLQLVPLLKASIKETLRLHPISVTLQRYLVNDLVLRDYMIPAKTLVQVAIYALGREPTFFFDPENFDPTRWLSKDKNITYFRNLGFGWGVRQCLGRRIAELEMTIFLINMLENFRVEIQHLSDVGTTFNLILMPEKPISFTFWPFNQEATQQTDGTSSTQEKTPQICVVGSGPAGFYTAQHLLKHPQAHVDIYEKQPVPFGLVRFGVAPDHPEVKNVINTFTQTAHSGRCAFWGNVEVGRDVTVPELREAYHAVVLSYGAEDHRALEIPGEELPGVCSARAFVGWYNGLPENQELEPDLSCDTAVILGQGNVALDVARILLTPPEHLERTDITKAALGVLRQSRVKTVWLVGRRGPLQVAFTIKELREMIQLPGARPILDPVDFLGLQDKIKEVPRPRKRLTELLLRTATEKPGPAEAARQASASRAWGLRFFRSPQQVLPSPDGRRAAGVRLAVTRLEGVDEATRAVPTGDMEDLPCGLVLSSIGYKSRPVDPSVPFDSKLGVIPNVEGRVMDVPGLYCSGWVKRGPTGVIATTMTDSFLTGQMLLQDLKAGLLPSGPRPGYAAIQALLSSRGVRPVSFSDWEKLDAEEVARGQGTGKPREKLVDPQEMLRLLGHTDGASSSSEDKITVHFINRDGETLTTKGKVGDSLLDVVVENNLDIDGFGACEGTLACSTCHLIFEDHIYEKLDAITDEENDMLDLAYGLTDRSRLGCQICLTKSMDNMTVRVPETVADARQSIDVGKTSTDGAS

Structure (SMILES) | Vmax [1] | Km ([1]; dose-response data) [µM] | Km [2] [µM] | Vmax ([2]; pregnenolone in culture medium) [ng/ml/24 h] | turnover (cholesterol converted per enzyme) [3]
CC(C)CC[C@@H](O)[C@@H](C)[C@H]1CC[C@H]2[C@@H]3CC=C4C[C@@H](O)CC[C@]4(C)[C@H]3CC[C@]12C [22R-hydroxycholesterol] | 1.7 ng pregnenolone/ml of culture medium/24 h | 0.37 | 2.85 | 9.1 | –
CC(C)CCC[C@@H](C)[C@H]1CC[C@H]2[C@@H]3CC=C4C[C@@H](O)CC[C@]4(C)[C@H]3CC[C@]12C [cholesterol] | – | – | – | – | about 1 mole of cholesterol per mole of enzyme per second
